According to US20250144067A1, “PERSONALIZED STARVATION THERAPY FOR CANCER” (Faeth Therapeutics, Inc., priority 2021, published 2025):
Counter-ions that a name gives are not always drawn. Like-named read-outs stand apart in the source and are kept apart here.

Key:
[1] = test system: NCI-H292 lung cancer cells; assay: FDA drug screening, complete media vs cholesterol-free media with simvastatin (TABLE 2); assay type: cell-based, human
[2] = test system: NCI-H292 lung cancer cells; assay: FDA drug screening, complete media vs cholesterol-free media without statin (TABLE 1); assay type: cell-based, human
[3] = NCI-H292 cells, FDA drug library screen, cholesterol-free media with simvastatin 0.04 μM
[4] = NCI-H292 cells, FDA drug library screen, complete media
[5] = complete media minus cholesterol-free media + simvastatin, >0 enhanced anti-cancer activity, about 0 neutral, <0 antagonist
[6] = NCI-H292 cells, cholesterol-free media without statin
[7] = complete vs cholesterol-free media, greater than 0 enhanced anti-cancer activity, about 0 neutral, below 0 antagonists
[8] = NCI-H292 cells, drug in cholesterol-free media with simvastatin 0.04 μM
[9] = NCI-H292 cells, drug in complete media
[10] = complete media vs cholesterol-free media + simvastatin (0.04 μM), >0 enhanced anti-cancer activity, about 0 neutral, <0 antagonist
[11] = Complete minus Cholesterol-free, >0 enhanced anti-cancer activity, about 0 neutral, <0 antagonist
[12] = NCI-H292 cells, cholesterol-free media with simvastatin 0.04 μM, FDA drug library screen (TABLE 2)
[13] = complete media minus cholesterol-free media + simvastatin (0.04 μM), >0 enhanced anti-cancer activity, about 0 neutral, <0 antagonist
[14] = NCI-H292 cells, complete media, FDA drug library screen (TABLE 2)
[15] = NCI-H292 cells, cholesterol-free media without statin, FDA drug library screen
[16] = NCI-H292 cells, complete media, FDA drug library screen
[17] = complete media vs cholesterol-free media + simvastatin (0.04 μM), […]
[18] = Complete minus Cholesterol-free, […]
[19] = NCI-H292 cells, FDA drug library screen, cholesterol-free media without statin
[20] = NCI-H292 cells, cholesterol-free media with simvastatin 0.04 μM, cell growth value in FDA drug screen
[21] = NCI-H292 cells, complete media, cell growth value in FDA drug screen
[22] = complete vs cholesterol-free media, >0 enhanced anti-cancer activity, about 0 neutral, <0 antagonist

C/C=C/C1=C(C(=O)O)N2C(=O)[C@@H](NC(=O)[C@H](N)c3ccc(O)cc3)[C@H]2SC1.O [Cefprozil (monohydrate)]
Cholesterol-free media + simvastatin (0.04 μM) [1, 3]: 0.9773
Complete Media [1, 4]: 1.216
Difference [1, 5]: 0.24
Cholesterol-free [2, 6]: 1.442
Complete ([2]; NCI-H292 cells, complete media): 1.109
Difference [2, 7]: −0.33

N=C(N)/N=C(\N)N1CCOCC1 [Moroxydine (hydrochloride)]
Cholesterol-free media + simvastatin (0.04 μM) [1, 8]: 1.02
Complete Media [1, 9]: 0.8563
Difference [1, 10]: −0.16
Cholesterol-free [2, 6]: 1.172
Complete ([2]; NCI-H292 cells, complete media): 0.8572
Difference [2, 7]: −0.32

CN(CCOc1ccc(CC2SC(=O)NC2=O)cc1)c1ccccn1 (stereo not drawn) [Rosiglitazone]
Cholesterol-free media + simvastatin (0.04 μM) [1, 3]: 1.707
Complete Media [1, 4]: 1.955
Difference [1, 5]: 0.25
Difference [2, 11]: −0.21
Cholesterol-free [2, 6]: 1.222
Complete ([2]; NCI-H292 cells, complete media): 1.017

CC1=C(CC(=O)O)c2cc(F)ccc2/C1=C\c1ccc([S+](C)[O-])cc1 (stereo not drawn) [Sulindac]
Cholesterol-free media + simvastatin (0.04 μM) [1, 12]: 1.193
Difference [1, 13]: −0.02
Difference ([2]; Complete minus Cholesterol-free, greater than 0 enhanced anti-cancer activity, about 0 neutral, below 0 antagonists): −0.48
Cholesterol-free ([2]; NCI-H292 cells in cholesterol-free media without statin): 1.336
Complete ([2]; NCI-H292 cells in complete media): 0.8519

CC(C)(C)C(=O)OCOP(=O)(COCCn1cnc2c(N)ncnc21)OCOC(=O)C(C)(C)C [Adefovir dipivoxil]
Cholesterol-free media + simvastatin (0.04 μM) [1, 12]: 0.2485
Complete Media [1, 14]: 0.1986
Difference [1, 13]: −0.05
Difference [2, 11]: −0.04
Cholesterol-free [2, 15]: 0.1811
Complete [2, 16]: 0.1375

C[C@H](CCC(=O)NCCS(=O)(=O)O)[C@H]1CC[C@H]2[C@@H]3CC[C@@H]4C[C@H](O)CC[C@]4(C)[C@H]3C[C@H](O)[C@]12C [Taurodeoxycholic acid (sodium hydrate)]
Difference [1, 10]: −0.45
Difference [2, 11]: −0.23
Cholesterol-free [2, 6]: 1.216
Complete ([2]; NCI-H292 cells, complete media): 0.9829

CN(C)c1cc(NC(=O)CNC(C)(C)C)c(O)c2c1C[C@H]1C[C@H]3[C@H](N(C)C)C(O)=C(C(N)=O)C(=O)[C@@]3(O)C(O)=C1C2=O [Tigecycline (tetramesylate)]
Cholesterol-free media + simvastatin (0.04 μM) [1, 3]: 0.4075
Complete Media [1, 4]: 0.333
Difference [1, 10]: −0.07
Difference [2, 11]: 0.02
Cholesterol-free [2, 15]: 0.1191
Complete [2, 16]: 0.1424

Nc1c(CC(=O)O)cccc1C(=O)c1ccc(Br)cc1 [Bromfenac (sodium hydrate)]
Cholesterol-free media + simvastatin (0.04 μM) [1, 3]: 1.132
Complete Media [1, 4]: 1.293
Difference [1, 5]: 0.16
Cholesterol-free [2, 6]: 1.074
Complete ([2]; NCI-H292 cells, complete media): 0.716
Difference [2, 7]: −0.36

C[C@H]1[C@H](OC(=O)CCC(=O)O)O[C@@H]2O[C@@]3(C)CC[C@H]4[C@H](C)CC[C@@H]1[C@@]24OO3 [Artesunate]
Cholesterol-free media + simvastatin (0.04 μM) [1, 3]: 1.06
Complete Media [1, 4]: 0.9407
Difference [1, 10]: −0.12
Cholesterol-free [2, 6]: 0.9732
Complete ([2]; NCI-H292 cells, complete media): 0.63
Difference [2, 7]: −0.34

Bromocriptine (mesylate)
Cholesterol-free media + simvastatin (0.04 μM) [1, 8]: 0.9355
Complete Media [1, 9]: 0.7343
Difference [1, 17]: −0.20
Difference [2, 18]: −0.12
Cholesterol-free [2, 19]: 0.9359
Complete [2, 4]: 0.8127

COc1cc2ncnc(Nc3ccc(F)c(Cl)c3)c2cc1OCCCN1CCOCC1 [Gefitinib]
Cholesterol-free media + simvastatin (0.04 μM) [1, 20]: 0.5074
Complete Media [1, 21]: 0.6027
Difference [1, 5]: 0.10
Difference [2, 11]: −0.25
Cholesterol-free [2, 6]: 0.6996
Complete ([2]; NCI-H292 cells, complete media): 0.4472

CC(=O)O.CN1C(=O)C[C@@H](C(=O)N[C@@H](Cc2cnc[nH]2)C(=O)N2CCC[C@H]2C(N)=O)NC1=O [Taltirelin (acetate)]
Cholesterol-free media + simvastatin (0.04 μM) [1, 3]: 1.154
Complete Media [1, 4]: 1.062
Difference [1, 17]: −0.09
Difference [2, 18]: −0.12
Cholesterol-free [2, 19]: 1.092
Complete [2, 4]: 0.9679

CC/C=C\C/C=C\C/C=C\C/C=C\C/C=C\C/C=C\CCC(=O)O [Docosahexaenoic Acid]
Cholesterol-free media + simvastatin (0.04 μM) [1, 8]: 1.034
Complete Media [1, 9]: 0.8041
Difference [1, 10]: −0.23
Cholesterol-free [2, 15]: 1.175
Complete [2, 16]: 1.764
Difference [2, 22]: 0.59

Nc1nc(F)nc2c1ncn2[C@@H]1O[C@H](CO)[C@@H](O)[C@@H]1O [Fludarabine]
Cholesterol-free media + simvastatin (0.04 μM) [1, 12]: 1.255
Complete Media [1, 14]: 1.187
Difference ([1]; complete media minus cholesterol-free media + simvastatin (0.04 μM), […]): −0.07
Difference [2, 18]: −0.15
Cholesterol-free [2, 19]: 1.174
Complete [2, 4]: 1.022

CCOC(=O)C1=C[C@]2(CC)CCCN3CCc4c(n1c1ccccc41)[C@@H]32 [Vinpocetine]
Cholesterol-free media + simvastatin (0.04 μM) [1, 20]: 0.854
Complete Media [1, 21]: 0.8952
Difference [1, 5]: 0.04
Difference ([2]; Complete minus Cholesterol-free, greater than 0 enhanced anti-cancer activity, about 0 neutral, below 0 antagonist): −0.09
Cholesterol-free [2, 19]: 0.912
Complete [2, 4]: 0.8209

CC(C)=CCC/C(C)=C/CC/C(C)=C/CC/C=C(\C)CC/C=C(\C)CCC=C(C)C [Squalene]
Cholesterol-free media + simvastatin (0.04 μM) [1, 8]: 0.9877
Complete Media [1, 9]: 0.7931
Difference [1, 10]: −0.19
Cholesterol-free [2, 15]: 1.273
Complete [2, 16]: 1.566
Difference [2, 22]: 0.29

CC(N/C(=N\C#N)Nc1ccncc1)C(C)(C)C (stereo not drawn) [Pinacidil monohydrate]
Cholesterol-free media + simvastatin (0.04 μM) ([1]; NCI-H292 cells, FDA library drug in cholesterol-free media with simvastatin 0.04 μM): 1.085
Complete Media ([1]; NCI-H292 cells, FDA library drug in complete media): 0.8064
Difference [1, 10]: −0.28
Difference [2, 11]: −0.26
Cholesterol-free [2, 6]: 1.093
Complete ([2]; NCI-H292 cells, complete media): 0.8337

Nc1ccc(S(=O)(=O)NC(=O)c2ccccc2)cc1 [Sulfabenzamide]
Cholesterol-free media + simvastatin (0.04 μM) [1, 8]: 1.231
Complete Media [1, 9]: 1.041
Difference [1, 10]: −0.19
Cholesterol-free [2, 6]: 1.412
Complete ([2]; NCI-H292 cells, complete media): 1.023
Difference [2, 7]: −0.39

CC(C)[N+](C)(CCC(C(N)=O)(c1ccccc1)c1ccccc1)C(C)C.[I-] [Isopropamide (iodide)]
Cholesterol-free media + simvastatin (0.04 μM) [1, 20]: 0.9908
Complete Media [1, 21]: 1.047
Difference [1, 5]: 0.06
Cholesterol-free [2, 6]: 1.319
Complete ([2]; NCI-H292 cells, complete media): 0.9185
Difference [2, 7]: −0.40

N#C[C@@H]1C[C@@H]2C[C@@H]2N1C(=O)[C@@H](N)C12CC3CC(CC(O)(C3)C1)C2 [Saxagliptin]
Cholesterol-free media + simvastatin (0.04 μM) [1, 12]: 0.8307
Complete Media [1, 14]: 0.816
Difference [1, 13]: −0.01
Difference [2, 11]: −0.04
Cholesterol-free [2, 15]: 0.9657
Complete [2, 16]: 0.9238

CCCCCCCCCCCCCCCC(=O)O[C@@H]1[C@@H](O)[C@@H](O)[C@@H]([C@H](NC(=O)[C@@H]2C[C@@H](CCC)CN2C)[C@H](C)Cl)O[C@@H]1SC.Cl [Clindamycin palmitate (hydrochloride)]
Cholesterol-free media + simvastatin (0.04 μM) [1, 3]: 1.093
Complete Media [1, 4]: 0.9482
Difference [1, 10]: −0.14
Cholesterol-free [2, 15]: 0.6777
Complete [2, 16]: 1.478
Difference [2, 22]: 0.80

[O-][n+]1ccccc1[S-].[O-][n+]1ccccc1[S-].[Zn+2] [Zinc Pyrithione]
Cholesterol-free media + simvastatin (0.04 μM) [1]: 0.004251
Complete Media [1]: −0.04835
Difference [1]: −0.05
Cholesterol-free [2]: 0.0139
Complete [2]: 0.007475
Difference [2]: −0.01
